Assay results taken from article PMC10014103, “The immunometabolite itaconate stimulates OXGR1 to promote mucociliary clearance during the pulmonary innate immune response” (The Journal of Clinical Investigation, 2023).
Like-named read-outs stand apart in the source and are kept apart here.

Columns and labels:
human OXGR1 [1] = molecular target: T1, human OXGR1 (Homo sapiens, UniProt Q96P68); test: Aequorin assay (calcium mobilization) in HEK293 cells overexpressing human OXGR1; format: cell-based; conditions: for EC50: read-out: EC50
Experimental: (§1) Thirty-six hours after transfection, cells were maintained in serum-free medium for 12 hours and then loaded with 5 μM coelenterazine for 3 hours. Cells were trypsinized and resuspended at a density of 5 × 10^5 cells/mL in HBSS supplemented with 10 mM HEPES and 0.5% BSA. Cell suspensions of 100 μL were aliquoted into 96-well plates.

human OXGR1 [2] = molecular target: T1, human OXGR1; test: cAMP GloSensor assay in HEK293 cells expressing human OXGR1; format: cell-based; conditions: 0.5 mM ligand, Gs/Gi coupling
Experimental: For the GloSensor assay, HEK293 cells stably expressing pGloSensor-22F were transfected with GPCR plasmids. Thirty-six hours after transfection, cells were trypsinized and resuspended at a density of 2.5 × 10^5 cells/mL in HBSS supplemented with 10 mM HEPES, 0.5% BSA, 2% GloSensor cAMP Reagent stock solution (Promega), and 300 μM IBMX, and loaded with GloSensor substrates for 2 hours. Cell suspensions (100 μL) were aliquoted onto 96-well plates. Cells were treated with 0.5 mM of the indicated ligand or 1 μM forskolin, and luminance was recorded.

human OXGR1 [3] = molecular target: T1, human OXGR1; test: Stress fiber assay in NIH3T3 cells stably expressing OXGR1; format: cell-based, mouse; conditions: 500 μM ITA, 30 minutes, G12/13 coupling
Experimental: For the stress fiber assay, NIH3T3 cells stably expressing OXGR1 were treated with 500 μM ITA or 10 μM lysophosphatidic acid (LPA) for 30 minutes. Cells were fixed with 4% paraformaldehyde and permeabilized with 0.1% Triton X-100. Stress fibers were stained with FITC-phalloidin (Invitrogen, Thermo Fisher Scientific). Nuclei were stained with DAPI. Immunofluorescence images were captured with a Leica SP8 laser-scanning confocal microscope.

[4] = tested on: human OXGR1 orthosteric site mutants; test: Aequorin assay in HEK293 cells expressing mutant human OXGR1; format: cell-based; conditions: effect of mutation on ligand-stimulated calcium response
Experimental: as §1

[5] = tested on: primary human bronchial epithelial cells; test: Calcium imaging (Fluo-4AM) of primary human bronchial epithelial cells; format: cell-based; conditions: 0.5 mM ITA
Experimental: For calcium imaging of human primary bronchial epithelial cells, cells were infected with 2 CRISPR lentiviruses targeting OXGR1 and cultured for 2 days before calcium imaging. For calcium imaging of primary mouse cells, freshly isolated mouse tracheas were cut into rings, placed onto collagen-coated dishes, and cultured in DMEM supplemented with 10% FBS. Cells were loaded with 5 μM Fluo-4AM for 30 minutes in HBSS buffer, washed twice, and incubated for another 15 minutes for fully deesterification of Fluo-4AM. Cells loaded with Fluo-4AM were monitored with the BioTek Cytation 5 Cell imaging system every 300 ms for a total of 1.5 minutes after ligand administration. Fluorescence was quantified with ImageJ software (NIH).

[6] = tested on: primary mouse respiratory epithelial cells (ALI culture); test: Bead movement in ALI culture of primary mouse respiratory epithelial cells; format: cell-based; conditions: 500 μM ITA, Oxgr1+/+ vs Oxgr1–/–
Experimental: (§2) . When they reached full confluence, the cells were differentiated by exposure to air and cultured in a serum-free medium for 20 days. ALI culturing of primary human bronchial epithelium was performed following the manufacturer’s manual ([…] Technologies). Briefly, cells were maintained in PneumaCult-Ex Plus medium on a Transwell insert. Medium on the lateral side was switched to PneumaCult-ALI medium. The apical side of the Transwell membrane was then carefully washed with prewarmed Dulbecco’s PBS (DPBS). Cells were differentiated by exposure to air for 3 weeks. The medium was changed every 2 days.
(§3) For the measurement of bead movement in ALI culture, the apical side of the ALI culture inserts was washed with PBS 5 times to fully remove mucus. The inserts were transferred to HBSS buffer supplemented with 30 mM HEPES and the indicated ligand, and 20 μL bath buffer containing red fluorescent beads was added to the apical side. After 15 minutes of equilibration, bead movement was monitored with the BioTek Cytation 5 cell imaging system.

[7] = tested on: primary human respiratory epithelial cells (ALI culture); test: Bead movement in ALI culture of primary human bronchial epithelial cells; format: cell-based; conditions: 500 μM ITA, OXGR1-dependent
Experimental: as §2, §3

[8] = tested on: respiratory epithelium mucin secretion; test: Intranasal administration, mucin-containing cells in nasal cavity (Alcian blue/PAS); format: in vivo, mouse; conditions: intranasal 500 μM ITA, 1 hour
Excerpt: Harvested mouse skulls were fixed in 4% paraformaldehyde overnight and decalcified with 12% EDTA for 2 weeks. After full decalcification, the snoots were trimmed in between the incisor teeth and the first molar teeth. Trimmed tissues were embedded with paraffin, and sections were taken from the most proximal aspect of the nasal cavity. Mucin-containing epithelial cells distributed in the basement membrane of the nasal cavity floor and septum were visualized by Alcian blue/PAS staining and manually counted.

[9] = tested on: Pseudomonas aeruginosa strain PAO1; test: Mouse intranasal infection with P. aeruginosa strain PAO1, CFU in BAL and lung; format: in vivo; conditions: intranasal 1 mM ITA with PAO1, 12 hours after infection
Experimental: A 1 × 10^7 log-phase PAO1 strain in 40 μL PBS was used for infection of the mice. Mice were gently restrained by the scruff at a 45° angle. PBS with the indicated strains was delivered to the nares. PBS alone or with 1 mM ITA was codelivered along with PAO1. Mouse mouths were covered during the whole procedure to ensure complete inhalation into the nose and the lower respiratory tract. BAL and lung tissue were collected 12 hours of infection and plated in cetyl trimethyl ammonium bromide (CTAB) selection agar. The numbers of CFU were counted after 18 hours of culture.

[10] = ITA concentration in BAL after intranasal supplementation (LC-MS); format: in vivo; conditions: mouse, bronchoalveolar lavage fluid (BAL), other: intranasal, 20 µL of saline containing 1 mM ITA; 0.5 hours after intranasal ITA supplementation
Experimental: The concentrations of urea in plasma and BAL were determined using a urea assay kit (Solarbio). For ITA determination, samples were extracted by 80% (vol/vol) chilled (–80°C) methanol and analyzed with an ultra-high-performance liquid chromatograph (Acquity UPLC I-Class, Waters) coupled to a triple quadrupole mass spectrometer (Xevo TQ-XS, Waters). For α-KG determination, samples were lyophilized and derived by methoxyamine (MilliporeSigma) and N-methyl-N-[tert-butyldimethylsilyl] trifluoroacetamide (MilliporeSigma) in pyridine (MilliporeSigma). The derivatized sample was injected into an Agilent 7890A-5975C GC-MS system with an HP-5MS column.
Supplementary Figure 8. ITA level is positively correlated with Mucin 5b or β-defensin 1 concentration in BAL from mice after P. aeruginosa infection
A. ITA concentration in BAL was determined by LC-MS after intranasal delivery of 20μL saline containing PAO1 and 1mM ITA (n=3-4).B-C. Comparison of Mucin 5b (B) and β-defensin1 (C) concentration in BAL of P. aeruginosainfected mice with indicated genotypes (n=4-10). Significance is determined by paired t-test. n.s., no significance. D-E. Correlation analysis of ITA concentration and Mucin 5b (D) or β-defensin1 concentration (E) in BAL ofP. aeruginosainfected WT mice. […]

Question: What does the source list for `C=C(CC(=O)O)C(=O)O` [ITA, itaconate]?
Answer: calcium response (agonist effect) (human OXGR1 [1]; HEK293 cells overexpressing human OXGR1, aequorin): stimulated the calcium response in a dose-dependent manner; EC50 (human OXGR1 [1]; OXGR1, as stated in abstract): ~300 µM; EC50 (human OXGR1 [1]; aequorin assay, hOXGR1 in HEK293 cells): 310 ± 45.2 µM; EC50 (human OXGR1 [1]; human OXGR1, text summary of Figure 1F and Supplemental Figure 2 (aequorin and Fluo-4)): 200 to 300 µM; intracellular cAMP (human OXGR1 [2]): did not affect intracellular cAMP; stress fiber formation (human OXGR1 [3]): failed to affect stress fiber formation; calcium response, mutants C106A, R110A, H258A, R261A, I265A [4]: completely abolished; calcium response, mutants H114A, Y118F, I121A, I285A, R288A [4]: dramatically impaired; calcium mobilization ([5]; control cells): robust calcium mobilization; calcium mobilization after depletion of OXGR1 ([5]; sgOXGR1): abolished by depletion of OXGR1; movement of beads [6]: could accelerate the movement of beads in an Oxgr1-dependent manner; movement of beads [7]: accelerated the movement of beads; mucin-containing cells in respiratory epithelium, Oxgr1+/+ mice [8]: decrease of mucin-containing cells; mucin-containing cells in respiratory epithelium, Oxgr1–/– mice [8]: did not observe an effect; bacterial overgrowth phenotype (CFU in BAL and lung), Irg1–/– mice [9]: rescued the bacterial overgrowth phenotype; concentration at 0.5 h [10]: 200 to 300 nM
